Reference: patent publication US20210122757A1, “SPIROCYCLIC COMPOUNDS AS MODULATORS OF INDOLEAMINE 2,3-DIOXYGENASE” (PHENEX DISCOVERY VERWALTUNGS-GMBH, priority 2018, published 2021)

Target: T1, Indoleamine 2,3-dioxygenase (Homo sapiens, UniProt P14902)
T1 construct: endogenous in cells; host or cells: SKOV-3 (ATCC HTB-77), stimulated with 50 ng/ml interferon gamma
Test: SKOV-3 Cellular Indoleamine 2,3-dioxygenase Assay
Conditions: SKOV-3 cells, 50 ng/ml Interferon gamma, 100 μM L-Tryptophan, 24 hours, N-Formylkynurenin fluorescence detection; read-out: cell based activity (IC50)
Description: SKOV-3 Cellular Indoleamine 2,3-dioxygenase Assay
SKOV-3 cells were obtained from the American Type Culture Collection (ATCC® HTB-77™) and maintained in McCoy's medium (Pan Biotech) supplemented with 10% fetal bovine serum and 1% Penicillin/Streptomycin. Cells were kept at 37° C. in a humidified incubator with 5% CO2. For assay preparation, cells were seeded at a density of 2*10^5/ml into black clear bottom 96 well plates in 100 μl medium/well supplemented with 50 ng/ml Interferon gamma (eBioscience, Thermo Fisher Scientific). After cells fully adhered to the plate, dilution series of compounds were added in medium containing additional L-Tryptophan to a final L-Tryptophan concentration of 100 μM. The cells were incubated for 24 hours. Detection of produced N-Formylkynurenin was performed by addition of 3-Methylpiperidine to a final concentration of 200 mM. The plates were sealed and heated to 65° C. for 20 minutes in a water bath. After cooling the fluorescence of each well was recorded with a Victor™X4 (PerkinElmer) plate reader at an emission wavelength of 535 nm and excitation at 405 nm (Tomek et al.; Anal Bioanal Chem (2013) 405:2515-2524, Tomek et al.; Biochim Biophys Acta. 2015 September; 1850(9):1772-80).

T1 sequence (P14902 whole entry): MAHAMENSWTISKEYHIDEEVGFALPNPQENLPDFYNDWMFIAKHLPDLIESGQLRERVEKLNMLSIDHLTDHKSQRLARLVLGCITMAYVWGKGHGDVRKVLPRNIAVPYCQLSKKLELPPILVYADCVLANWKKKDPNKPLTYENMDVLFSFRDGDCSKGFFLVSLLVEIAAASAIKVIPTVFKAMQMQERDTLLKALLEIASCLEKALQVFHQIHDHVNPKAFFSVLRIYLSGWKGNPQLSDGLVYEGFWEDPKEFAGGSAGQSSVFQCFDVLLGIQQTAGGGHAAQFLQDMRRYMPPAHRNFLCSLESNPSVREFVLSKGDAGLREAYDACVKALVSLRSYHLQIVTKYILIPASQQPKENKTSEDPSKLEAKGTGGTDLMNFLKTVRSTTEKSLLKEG

| IC50 [nM] | Structure (SMILES) |
| --- | --- |
| < 50 | C[C@@H](C(=O)Nc1ccc(Cl)cc1)[C@H]1CC[C@@]2(CC1)COc1cc(C(F)(F)F)ccc12 [Example 3c, (R)—N-(4-Chlorophenyl)-2-((3R,4′r)-6-(trifluoromethyl)-2H-spiro[benzofuran-3,1′-cyclohexan]-4′-yl)propanamide] |
| < 50 | C[C@H](C(=O)Nc1ccc(Cl)cc1)[C@H]1CC[C@]2(CC1)COc1cc(C(F)(F)F)ccc12 [Example 3d, (S)—N-(4-Chlorophenyl)-2-((3R,4′s)-6-(trifluoromethyl)-2H-spiro[benzofuran-3,1′-cyclohexan]-4′-yl)propanamide] |
| ≥ 50 | C[C@@H](C(=O)Nc1ccc(Cl)cc1)[C@H]1CC[C@]2(CC1)COc1cc(C(F)(F)F)ccc12 [Example 3e, (R)—N-(4-chlorophenyl)-2-((3S,4′s)-6-(trifluoromethyl)-2H-spiro[benzofuran-3,1′-cyclohexan]-4′-yl)propanamide] |
| < 50 | C[C@H](C(=O)Nc1ccc(Cl)cc1)[C@H]1CC[C@]2(CC1)COc1cc(C(F)F)ccc12 [Example 13, (S)—N-(4-chlorophenyl)-2-((3R,4′s)-6-(difluoromethyl)-2H-spiro[benzofuran-3,1′-cyclohexan]-4′-yl)propanamide] |
